Experimental data from PubChem BioAssay (NCI).
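The compound was tested at five concentrations on cells cultured in 96-well plates, with a 48-hour exposure period. TGI is the concentration that stops growth completely.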

Columns and labels:
Assay in all cases: NCI anticancer screen, dose series, 48 h
[1] = system: 786-0 renal
[2] = system: A498 renal
[3] = system: A549 NSCLC
[4] = system: ACHN renal
[5] = system: BT-549 breast
[6] = system: CAKI-1 renal
[7] = system: CCRF-CEM leukemia
[8] = system: COLO 205 colon
[9] = system: DU-145 prostate
[10] = system: EKVX NSCLC
[11] = system: HCC-2998 colon
[12] = system: HCT-116 colon
[13] = system: HCT-15 colon
[14] = system: HL-60(TB) leukemia
[15] = system: HOP-92 NSCLC
[16] = system: HS 578T breast
[17] = system: HT29 colon
[18] = system: IGROV1 ovarian
[19] = system: K-562 leukemia
[20] = system: KM12 colon
[21] = system: LOX IMVI melanoma
[22] = system: M14 melanoma
[23] = system: MALME-3M melanoma
[24] = system: MCF7 breast
[25] = system: MDA-MB-231 breast
[26] = system: MDA-MB-435
[27] = system: MDA-N
[28] = system: MOLT-4 leukemia
[29] = system: NCI-H226 lung
[30] = system: NCI-H23 lung
[31] = system: NCI-H460 lung
[32] = system: NCI-H522 lung
[33] = system: NCI/ADR-RES ovarian
[34] = system: OVCAR-3 ovarian
[35] = system: OVCAR-4 ovarian
[36] = system: OVCAR-5 ovarian
[37] = system: OVCAR-8 ovarian
[38] = system: PC-3 prostate
[39] = system: RPMI-8226 leukemia
[40] = system: SF-268 CNS
[41] = system: SF-295 CNS
[42] = system: SF-539 CNS
[43] = system: SK-MEL-2 melanoma
[44] = system: SK-MEL-28 melanoma
[45] = system: SK-MEL-5 melanoma
[46] = system: SK-OV-3 ovarian
[47] = system: SN12C renal
[48] = system: SNB-19 CNS
[49] = system: SNB-75 CNS
[50] = system: SW-620 colon
[51] = system: T-47D breast
[52] = system: TK-10 renal
[53] = system: U251 CNS
[54] = system: UACC-257 melanoma
[55] = system: UACC-62 melanoma
[56] = system: UO-31 renal

Measured: TGI

O=C(Nc1ccc(Cl)cc1)C(=O)C1=C(O)c2ccccc2OC1
> 100 µM: all assays above
